Our source for the IC50 values is patent US9040545B2, “Heterocyclyl pyrazolopyrimidine analogues as selective JAK inhibitors” (Cellzome Limited, priority 2010, dated 2015).

The assay has as its target T1, JAK2 (Homo sapiens, UniProt O60674).
T1 construct: endogenous in cells; host or cells: mixed Molt4/Ramos lysate (1:2)
The experiment in a line: Kinobeads assay, JAK2. Format: binding. Particulars: mixed Molt4/Ramos lysate, read-out: Inhibition values (IC50) JAK2. The method, then:
The compounds of the present invention as described in the previous examples were tested in a Kinobeads™ assay as described for ZAP-70 (WO-A 2007/137867). Briefly, test compounds (at various concentrations) and the affinity matrix with the immobilized aminopyrido-pyrimidine ligand 24 were added to cell lysate aliquots and allowed to bind to the proteins in the lysate sample. After the incubation time the beads with captured proteins were separated from the lysate. Bound proteins were then eluted and the presence of JAK2 and JAK3 was detected and quantified using specific antibodies in a dot blot procedure and the Odyssey infrared detection system. Dose response curves for individual kinases were generated and IC50 values calculated. Kinobeads™ assays for ZAP-70 (WO-A 2007/137867) and for kinase selectivity profiling (WO-A 2006/134056) have been previously described.
The affinity matrix was washed two times with 15 mL of 1×DP buffer containing 0.2% NP40 (IGEPAL® CA-630, Sigma, #I3021) and then resuspended in 1×DP buffer containing 0.2% NP40 (3% beads slurry).
5×DP buffer 250 mM Tris-HCl pH 7.4, 25% Glycerol, 7.5 mM MgCl2, 750 mM NaCl, 5 mM Na3VO4; filter the 5×DP buffer through a 0.22 μm filter and store in aliquots at −80° C. The 5×DP buffer is diluted with H2O to 1×DP buffer containing 1 mM DTT and 25 mM NaF.
Stock solutions of test compounds were prepared in DMSO. In a 96 well plate 30 μL solution of diluted test compounds at 5 mM in DMSO were prepared. Starting with this solution a 1:3 dilution series (9 steps) was prepared. For control experiments (no test compound) a buffer containing 2% DMSO was used.
Molt4 cells (ATCC catalogue number CRL-1582) and Ramos cells (ATCC catalogue number CRL-1596) were grown in 1 L Spinner flasks (Integra Biosciences, #182101) in suspension in RPMI 1640 medium (Invitrogen, #21875-034) supplemented with 10% Fetal Bovine Serum (Invitrogen) at a density between 0.15×106 and 1.2×10^6 cells/mL. Cells were harvested by centrifugation, washed once with 1×PBS buffer (Invitrogen, #14190-094) and cell pellets were frozen in liquid nitrogen and subsequently stored at −80° C. Cells were homogenized in a Potter S homogenizer in lysis buffer: 50 mM Tris-HCl, 0.8% NP40, 5% glycerol, 150 mM NaCl, 1.5 mM MgCl2, 25 mM NaF, 1 mM sodium vanadate, 1 mM DTT, pH 7.5. One complete EDTA-free tablet (protease inhibitor cocktail, Roche Diagnostics, 1873580) per 25 mL buffer was added. The material was dounced 10 times using a mechanized POTTER S, transferred to 50 mL falcon tubes, incubated for 30 minutes on ice and spun down for 10 minutes at 20,000 g at 4° C. (10,000 rpm in Sorvall SLA600, precooled). The supernatant was transferred to an ultracentrifuge (UZ)-polycarbonate tube (Beckmann, 355654) and spun for 1 hour at 100,000 g at 4° C. (33.500 rpm in Ti50.2, precooled). The supernatant was transferred again to a fresh 50 mL falcon tube, the protein concentration was determined by a Bradford assay (BioRad) and samples containing 50 mg of protein per aliquot were prepared. The samples were immediately used for experiments or frozen in liquid nitrogen and stored frozen at −80° C.
Cell lysate (approximately 50 mg protein per plate) was thawed in a water bath at room temperature and then stored on ice. To the thawed cell lysate 1×DP 0.8% NP40 buffer containing protease inhibitors (1 tablet for 25 mL buffer; EDTA-free protease inhibitor cocktail; Roche Diagnostics 1873580) was added in order to reach a final protein concentration of 10 mg/mL total protein. The diluted cell lysate was stored on ice. Mixed Molt4/Ramos lysate was prepared by combining one volume of Molt4 lysate and two volumes of Ramos lysate (ratio 1:2).
To a 96 well filter plate (Multiscreen HTS, BV Filter Plates, Millipore #MSBVN1250) were added per well: 100 μL affinity matrix (3% beads slurry), 3 μL of compound solution, and 50 μL of diluted lysate. […]

T1 sequence (O60674 whole entry): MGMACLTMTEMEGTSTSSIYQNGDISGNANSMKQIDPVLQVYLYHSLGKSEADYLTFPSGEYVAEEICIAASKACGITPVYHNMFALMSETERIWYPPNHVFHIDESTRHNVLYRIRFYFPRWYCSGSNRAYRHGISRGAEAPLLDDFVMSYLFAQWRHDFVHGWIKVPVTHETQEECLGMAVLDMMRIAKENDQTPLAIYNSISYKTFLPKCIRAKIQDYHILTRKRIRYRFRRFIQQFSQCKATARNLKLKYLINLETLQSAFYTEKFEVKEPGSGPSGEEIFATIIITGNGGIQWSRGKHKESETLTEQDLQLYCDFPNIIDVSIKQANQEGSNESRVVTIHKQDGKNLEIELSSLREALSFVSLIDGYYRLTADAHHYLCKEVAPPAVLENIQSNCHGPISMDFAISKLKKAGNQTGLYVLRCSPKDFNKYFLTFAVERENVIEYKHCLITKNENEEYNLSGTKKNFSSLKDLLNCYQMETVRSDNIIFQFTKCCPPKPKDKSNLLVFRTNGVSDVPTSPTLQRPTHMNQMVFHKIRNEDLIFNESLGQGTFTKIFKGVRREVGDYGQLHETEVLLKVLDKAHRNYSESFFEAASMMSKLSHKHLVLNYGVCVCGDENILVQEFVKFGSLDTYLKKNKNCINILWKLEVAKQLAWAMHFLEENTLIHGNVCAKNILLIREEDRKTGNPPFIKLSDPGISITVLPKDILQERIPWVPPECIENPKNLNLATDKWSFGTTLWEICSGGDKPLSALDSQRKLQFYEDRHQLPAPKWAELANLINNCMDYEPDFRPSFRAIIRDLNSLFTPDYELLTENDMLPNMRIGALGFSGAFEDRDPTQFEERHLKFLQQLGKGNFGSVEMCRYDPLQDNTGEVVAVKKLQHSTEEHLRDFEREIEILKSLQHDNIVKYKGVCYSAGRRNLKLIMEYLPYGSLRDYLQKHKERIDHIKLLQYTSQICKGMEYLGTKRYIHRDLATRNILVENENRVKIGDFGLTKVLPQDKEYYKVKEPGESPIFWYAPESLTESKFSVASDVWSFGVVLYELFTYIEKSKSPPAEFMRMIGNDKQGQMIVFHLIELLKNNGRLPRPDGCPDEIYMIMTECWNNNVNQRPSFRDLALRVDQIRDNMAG

On to `OCCCn1cc(Nc2ncc3cnn(Cc4cccc(N5CCOCC5)c4)c3n2)cn1` [Example 18, 3-(4-((1-(3-Morpholinobenzyl)-1H-pyrazolo[3,4-d]pyrimidin-6-yl)amino)-1H-pyrazol-1-yl)propan-1-ol], for which the IC50 was at least 10 µM.
The same measure for `CNCCCn1cc(Nc2ncc3cnn(Cc4cc(F)cc(N5CCOCC5=O)c4)c3n2)cn1` [Example 99, 4-(3-fluoro-5-((6-((1-(3-(methylamino)propyl)-1H-pyrazol-4-yl)amino)-1H-pyrazolo[3,4-d]pyrimidin-1-yl)methyl)phenyl)morpholin-3-one]: 1 to 10 µM.
The same measure for `CC(CN(C)C)Cn1cc(Nc2ncc3cnn(Cc4cccc(N5CCOCC5)c4)c3n2)cn1` (stereo not drawn) [Example 32, N-(1-(3-(Dimethylamino)-2-methylpropyl)-1H-pyrazol-4-yl)-1-(3-morpholinobenzyl)-1H-pyrazolo[3,4-d]pyrimidin-6-amine]: at least 10 µM; for `Cn1cc(Nc2ncc3cnn(Cc4cccc(-c5cnn(C)c5)c4)c3n2)cn1` [Example 115, N-(1-methyl-1H-pyrazol-4-yl)-1-(3-(1-methyl-1H-pyrazol-4-yl)benzyl)-1H-pyrazolo[3,4-d]pyrimidin-6-amine]: 1 to 10 µM; for `Cn1cc(Nc2ncc3cnn(Cc4cccc(-c5cnn(CCO)c5)c4)c3n2)cn1` [Example 121, 2-(4-(3-((6-((1-methyl-1H-pyrazol-4-yl)amino)-1H-pyrazolo[3,4-d]pyrimidin-1-yl)methyl)phenyl)-1H-pyrazol-1-yl)ethanol]: 1 to 10 µM.
As for `Cn1cc(Nc2ncc3cnn(Cc4cccc(N5CCOCC5=O)c4)c3n2)cn1` [Example 27, 4-(3-((6-((1-Methyl-1H-pyrazol-4-yl)amino)-1H-pyrazolo[3,4-d]pyrimidin-1-yl)methyl)phenyl)morpholin-3-one], the figure is 1 to 10 µM; as for `O=C1COCCN1c1cc(F)cc(Cn2ncc3cnc(Nc4cnn(CCS(=O)(=O)NC5CC5)c4)nc32)c1` [Example 106, N-cyclopropyl-2-(4-((1-(3-fluoro-5-(3-oxomorpholino)benzyl)-1H-pyrazolo[3,4-d]pyrimidin-6-yl)amino)-1H-pyrazol-1-yl)ethanesulfonamide], 1 to 10 µM; as for `Cn1cc(Nc2ncc3cnn(Cc4cccc(N5CCC6(COC6)C5)c4)c3n2)cn1` [Example 104, 1-(3-(2-oxa-6-azaspiro[3.4]octan-6-yl)benzyl)-N-(1-methyl-1H-pyrazol-4-yl)-1H-pyrazolo[3,4-d]pyrimidin-6-amine], at least 10 µM.
For the compound `Cn1cc(Nc2ncc3cnn(Cc4cc(F)cc(N5CCNCC5)c4)c3n2)cn1` [Example 92, 1-(3-fluoro-5-(piperazin-1-yl)benzyl)-N-(1-methyl-1H-pyrazol-4-yl)-1H-pyrazolo[3,4-d]pyrimidin-6-amine], the IC50 lay in the range of 1 to 10 µM.
The same measure for `Cn1cc(-c2cccc(Cn3ncc4cnc(Nc5cnn(CCO)c5)nc43)c2)cn1` [Example 122, 2-(4-((1-(3-(1-methyl-1H-pyrazol-4-yl)benzyl)-1H-pyrazolo[3,4-d]pyrimidin-6-yl)amino)-1H-pyrazol-1-yl)ethanol]: 1 to 10 µM.
As for `Fc1cc(N2CCOCC2)c(F)c(Cn2ncc3cnc(Nc4cnn(CC5CCNC5)c4)nc32)c1F` (stereo not drawn) [Example 94, N-(1-(pyrrolidin-3-ylmethyl)-1H-pyrazol-4-yl)-1-(2,3,6-trifluoro-5-morpholinobenzyl)-1H-pyrazolo[3,4-d]pyrimidin-6-amine], the figure is 1 to 10 µM; as for `Cn1cc(Nc2ncc3cnn(Cc4cc(-c5cnn(C)c5)cc(F)c4F)c3n2)cn1` [Example 126, 1-(2,3-difluoro-5-(1-methyl-1H-pyrazol-4-yl)benzyl)-N-(1-methyl-1H-pyrazol-4-yl)-1H-pyrazolo[3,4-d]pyrimidin-6-amine], at least 10 µM.
`Cn1cc(Nc2ncc3cnn(Cc4cccc(N5CCOCC5)c4Cl)c3n2)cn1` [Example 103, 1-(2-chloro-3-morpholinobenzyl)-N-(1-methyl-1H-pyrazol-4-yl)-1H-pyrazolo[3,4-d]pyrimidin-6-amine]: the IC50 lay within 1 to 10 µM.
As for `Cn1cc(Nc2ncc3cnn(Cc4cccc(NC5COC5)c4)c3n2)cn1` [Example 114, N-(1-methyl-1H-pyrazol-4-yl)-1-(3-(oxetan-3-ylamino)benzyl)-1H-pyrazolo[3,4-d]pyrimidin-6-amine], the figure is 1 to 10 µM; as for `Cn1cc(Nc2ncc3cnn(Cc4cccc(N5CCOCC5)n4)c3n2)cn1` [Example 3, N-(1-Methyl-1H-pyrazol-4-yl)-1-((6-morpholinopyridin-2-yl)methyl)-1H-pyrazolo[3,4-d]pyrimidin-6-amine], at least 10 µM.
As for `Cn1cc(Nc2ncc3cnn(Cc4cccc(N5CC6CCC(C5)O6)c4)c3n2)cn1` [Example 26], the figure is at least 10 µM; as for `O=C1COCCN1c1cc(F)cc(Cn2ncc3cnc(Nc4cnn(C5CCNCC5)c4)nc32)c1` [Example 102, 4-(3-fluoro-5-((6-((1-(piperidin-4-yl)-1H-pyrazol-4-yl)amino)-1H-pyrazolo[3,4-d]pyrimidin-1-yl)methyl)phenyl)morpholin-3-one], 0.1 to 1 µM.
As for `O=C1COCCN1c1cccc(Cn2ncc3cnc(Nc4cnn(CCO)c4)nc32)c1` [Example 29, 4-(3-((6-((1-(2-Hydroxyethyl)-1H-pyrazol-4-yl)amino)-1H-pyrazolo[3,4-d]pyrimidin-1-yl)methyl)phenyl)morpholin-3-one], the figure is at least 10 µM.
On to `Cn1cc(Nc2ncc3cnn(Cc4cccc(N5CCN(S(C)(=O)=O)CC5)c4)c3n2)cn1` [Example 100, N-(1-methyl-1H-pyrazol-4-yl)-1-(3-(4-(methylsulfonyl)piperazin-1-yl)benzyl)-1H-pyrazolo[3,4-d]pyrimidin-6-amine], for which the IC50 is at least 10 µM.
The same measure for `Cn1cc(Nc2ncc3cnn(Cc4cccc(N5CCS(=O)(=O)CC5)c4)c3n2)cn1` [Example 25, 4-(3-((6-((1-Methyl-1H-pyrazol-4-yl)amino)-1H-pyrazolo[3,4-d]pyrimidin-1-yl)methyl)phenyl)thiomorpholine 1,1-dioxide]: at least 10 µM; for `Cn1cc(Nc2ncc3cnn(Cc4cccc(-c5cnn(CC(N)=O)c5)c4)c3n2)cn1` [Example 120, 2-(4-(3-((6-((1-methyl-1H-pyrazol-4-yl)amino)-1H-pyrazolo[3,4-d]pyrimidin-1-yl)methyl)phenyl)-1H-pyrazol-1-yl)acetamide]: 1 to 10 µM; for `CCn1cc(-c2cccc(Cn3ncc4cnc(Nc5cnn(C)c5)nc43)c2)cn1` [Example 116, 1-(3-(1-ethyl-1H-pyrazol-4-yl)benzyl)-N-(1-methyl-1H-pyrazol-4-yl)-1H-pyrazolo[3,4-d]pyrimidin-6-amine]: 1 to 10 µM.
The same measure for `Cn1cc(-c2cc(F)c(F)c(Cn3ncc4cnc(Nc5cnn(CCO)c5)nc43)c2)cn1` [Example 127, 2-(4-((1-(2,3-difluoro-5-(1-methyl-1H-pyrazol-4-yl)benzyl)-1H-pyrazolo[3,4-d]pyrimidin-6-yl)amino)-1H-pyrazol-1-yl)ethanol]: 1 to 10 µM; for `Cn1cc(Nc2ncc3cnn(Cc4cc(N5CCOCC5)ccc4F)c3n2)cn1` [Example 15, 1-(2-Fluoro-5-morpholinobenzyl)-N-(1-methyl-1H-pyrazol-4-yl)-1H-pyrazolo[3,4-d]pyrimidin-6-amine]: at least 10 µM.
